Experimental findings from patent US11040026B2, “Muscarinic M1 receptor positive allosteric modulators” (SUVEN LIFE SCIENCES LIMITED, priority 2016, dated 2021) are described below.

Molecules are shown by their SMILES. Where a name gives a salt, the structure may show the parent alone.

In this test the target is T1, muscarinic M1 receptor (Homo sapiens, UniProt P11229).
T1 sequence (P11229 1-460): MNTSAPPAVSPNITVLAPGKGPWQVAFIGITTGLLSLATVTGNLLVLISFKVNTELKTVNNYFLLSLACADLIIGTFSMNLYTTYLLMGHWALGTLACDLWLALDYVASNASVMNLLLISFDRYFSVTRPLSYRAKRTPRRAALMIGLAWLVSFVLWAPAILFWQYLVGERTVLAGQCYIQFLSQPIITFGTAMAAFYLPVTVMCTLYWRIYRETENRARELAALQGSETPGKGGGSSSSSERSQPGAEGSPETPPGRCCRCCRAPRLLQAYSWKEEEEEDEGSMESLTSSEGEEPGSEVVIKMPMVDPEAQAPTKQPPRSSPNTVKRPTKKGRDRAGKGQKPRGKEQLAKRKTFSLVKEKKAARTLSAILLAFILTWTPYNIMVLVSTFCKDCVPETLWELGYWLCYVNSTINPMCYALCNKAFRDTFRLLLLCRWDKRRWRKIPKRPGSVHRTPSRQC
Nature of the test: Allosteric potency EC50 for muscarinic M1 receptor (CHO pCRE-Luc reporter assay). Conditions: in presence of EC20 of acetylcholine; CHO cells, luciferase reporter, 4 hours. The class given is cell-based. How it is done:
Determination of Allosteric Potency EC50 Values for Muscarinic M1 Receptor:
A stable CHO cell line expressing recombinant human Muscarinic M1 receptor and pCRE-Luc reporter system was used for cell-based assay. The assay offers a non-radioactive based approach to determine binding of a compound to GPCRs. In this specific assay, the level of intracellular cyclic AMP which is modulated by activation or inhibition of the receptor is measured. The recombinant cells harbor luciferase reporter gene under the control of cyclic AMP response element.
The above cells were grown in 96 well clear bottom white plates in Hams F12 medium containing 10% fetal bovine serum (FBS). Prior to the addition of compounds or standard agonist, cells were serum starved overnight. Increasing concentrations of test compounds were added along with EC20 of acetylcholine in OptiMEM medium to the cells. The incubation was continued at 37° C. in CO2 incubator for 4 hours. Medium was removed and cells were washed with phosphate buffered saline. The cells were lysed and luciferase activity was measured in a Luminometer. Luminescence units were plotted against the compound concentrations using Graphpad software. EC50 values of the compounds were defined as the concentration required in stimulating the luciferase activity by 50% in presence of EC20 of acetylcholine and the results are provided in table 1.
A general note: A reporter such as luciferase makes a cellular process visible.
As usually defined, the EC50 is the concentration needed to bring the measured effect to its halfway point. As for `Cn1ccc2c(Cc3ccnc(F)c3)cc(C(=O)N[C@@H]3CCOC[C@H]3O)nc21` (single isomer, unassigned; isomer-ii) [Example 40, trans-N-(3-Hydroxytetrahydropyran-4-yl)-4-(2-fluoropyridin-4-ylmethyl)-1-methyl-1H-pyrrolo[2,3-b]pyridine-6-carboxamide (Isomer-II)], the EC50 is 755 nM.
Take `CSc1ccc(Cc2cc(C(=O)N[C@H]3CCCC[C@@H]3O)nc3c2ccn3C)cn1` [Example 20, N-[(1S,2S)-2-Hydroxycyclohexyl]-4-(2-methylsulfanylpyridin-5-ylmethyl)-1-methyl-1H-pyrrolo[2,3-b]pyridine-6-carboxamide]: the EC50 was 315 nM.
As to `Cn1ccc2c(Cc3cccc(F)c3F)cc(C(=O)N[C@@H]3CCOC[C@H]3O)nc21` (single isomer, unassigned; isomer-i) [Example 43, trans-N-(3-Hydroxytetrahydropyran-4-yl)-4-(2,3-difluorobenzyl)-1-methyl-1H-pyrrolo[2,3-b]pyridine-6-carboxamide (Isomer-I)], the EC50 was found to be 2530 nM.
On to `Cn1ccc2c(Cc3ccc(F)c(F)c3)cc(C(=O)N[C@H]3CCOC[C@H]3O)nc21` (single isomer, unassigned; isomer-ii) [Example 42, cis-N-(3-Hydroxytetrahydropyran-4-yl)-4-(3,4-difluorobenzyl)-1-methyl-1H-pyrrolo[2,3-b]pyridine-6-carboxamide (Isomer-II)], for which the EC50 was 2290 nM.
As to `Cn1ccc2c(Cc3cccc(F)c3F)cc(C(=O)N[C@H]3CCCC[C@@H]3O)nc21` [Example 16, N-[(1S,2S)-2-Hydroxycyclohexyl]-4-(2,3-difluorobenzyl)-1-methyl-1H-pyrrolo[2,3-b]pyridine-6-carboxamide], the concentration for a half-maximal effect (EC50) amounted to 1290 nM.
For the compound `Cn1cc(-c2ccc(Cc3cc(C(=O)N[C@H]4CCCC[C@@H]4O)nc4c3ccn4C)cn2)cn1` [Example 15, N-[(1S,2S)-2-Hydroxycyclohexyl]-4-[2-(1-methyl-1H-pyrazol-4-yl)pyridin-5-ylmethyl]-1-methyl-1H-pyrrolo[2,3-b]pyridine-6-carboxamide], the EC50 amounted to 38 nM.
Then `Cn1ccc2c(Cc3ccnc(F)c3)cc(C(=O)N[C@@H]3CCOC[C@H]3O)nc21` (single isomer, unassigned; isomer-i) [Example 39, trans-N-(3-Hydroxytetrahydropyran-4-yl)-4-(2-fluoropyridin-4-ylmethyl)-1-methyl-1H-pyrrolo[2,3-b]pyridine-6-carboxamide (Isomer-I)], with 968 nM; and `O=C(N[C@H]1CCCC[C@@H]1O)c1cc(Cc2ccc(Cl)nc2)c2ccn(CCF)c2n1` [Example 23, N-[(1S,2S)-2-Hydroxycyclohexyl]-4-(2-chloropyridin-5-ylmethyl)-1-(2-fluoroethyl)-1H-pyrrolo[2,3-b]pyridine-6-carboxamide], with 727 nM.
As to `Cn1ccc2c(Cc3ccc(F)nc3)cc(C(=O)N[C@H]3CCCC[C@@H]3O)nc21` [Example 3, N-[(1S,2S)-2-Hydroxycyclohexyl]-4-(2-fluoropyridin-5-ylmethyl)-1-methyl-1H-pyrrolo[2,3-b]pyridine-6-carboxamide], the EC50 was determined as 977 nM.
Take `Cn1ccc2c(Cc3ccc(-c4cscn4)cc3)cc(C(=O)NC3CCOCC3O)nc21` (racemic) [Example 53, Racemic trans-N-(3-Hydroxytetrahydropyran-4-yl)-4-[4-(thiazol-4-yl)benzyl]-1-methyl-1H-pyrrolo[2,3-b]pyridine-6-carboxamide]: the EC50 stood at 31 nM.
As for `Cn1ccc2c(Cc3ccc(-n4cccn4)cc3)cc(C(=O)N[C@H]3CCCC[C@@H]3O)nc21` [Example 6, N-[(1S,2S)-2-Hydroxycyclohexyl]-4-(4-pyrazol-1-ylbenzyl)-1-methyl-1H-pyrrolo[2,3-b]pyridine-6-carboxamide], the figure is 15 nM; as for `COc1ccc(Cc2cc(C(=O)N[C@H]3CCCC[C@@H]3O)nc3c2OCCN3C)cc1` [Example 127, N-[(1S,2S)-2-Hydroxycyclohexyl]-8-(4-methoxybenzyl)-4-methyl-2H-pyrido[3,2-b][1,4]oxazine-6-carboxamide], 946 nM.
Take `CN1CCc2c(Cc3ccc(F)cc3)cc(C(=O)N[C@H]3CCCC[C@@H]3O)nc21` [Example 76, N-[(1S,2S)-2-Hydroxycyclohexyl]-4-(4-fluorobenzyl)-1-methyl-2,3-dihydro-1H-pyrrolo[2,3-b]pyridine-6-carboxamide]: the EC50 worked out at 380 nM.
As to `Cn1cc(-c2ccc(Cc3cc(C(=O)N[C@H]4CCCC[C@@H]4O)nc4c3ccn4C)cc2)cn1` [Example 7, N-[(1S,2S)-2-Hydroxycyclohexyl]-4-[4-(1-methyl-1H-pyrazol-4-yl)benzyl]-1-methyl-1H-pyrrolo[2,3-b]pyridine-6-carboxamide], the EC50 is 8 nM.
`O=C(N[C@@H]1CCOC[C@H]1O)c1cc(Cc2ccc(F)cc2)c2c(n1)CNCC2` (single isomer, unassigned; isomer-ii) [Example 98, trans-N-(3-Hydroxytetrahydropyran-4-yl)-4-(4-fluorobenzyl)-5,6,7,8-tetrahydro[1,7]naphthyridine-2-carboxamide Hydrochloride (Isomer-II)]: the EC50 amounted to 109 nM.
On to `O=C(N[C@@H]1CCOC[C@H]1O)c1cc(Cc2ccc(-c3cscn3)cc2)c2c(n1)CNCC2` (single isomer, unassigned; isomer-ii) [Example 97, trans-N-(3-Hydroxytetrahydropyran-4-yl)-4-[4-(thiazol-4-yl)benzyl]-5,6,7,8-tetrahydro[1,7]naphthyridine-2-carboxamide Hydrochloride (Isomer-II)], for which the half-maximal effective concentration (EC50) is 6 nM.
As for `Cc1cc(Cc2cc(C(=O)N[C@H]3CCCC[C@@H]3O)nc3c2ccn3C)ccn1` [Example 17, N-[(1S,2S)-2-Hydroxycyclohexyl]-4-(2-methylpyridin-4-ylmethyl)-1-methyl-1H-pyrrolo[2,3-b]pyridine-6-carboxamide], the figure is 1630 nM; as for `COc1ccc(Cc2cc(C(=O)N[C@H]3CCCC[C@@H]3O)nc3c2ccn3C)cc1` [Example 19, N-[(1S,2S)-2-Hydroxycyclohexyl]-4-(4-methoxybenzyl)-1-methyl-1H-pyrrolo[2,3-b]pyridine-6-carboxamide], 1110 nM.
On to `Cn1ccc2c(Cc3ccc(-c4ccc(F)nc4)nc3)cc(C(=O)N[C@H]3CCCC[C@@H]3O)nc21` [Example 13, N-[(1S,2S)-2-Hydroxycyclohexyl]-4-(2′-fluoro-[2,5]bipyridinyl-5-ylmethyl)-1-methyl-1H-pyrrolo[2,3-b]pyridine-6-carboxamide], for which the EC50 was 617 nM.
In the case of `Cn1ccc2c(Cc3ccc(-c4cscn4)cc3)cc(C(=O)NCC(C)(C)O)nc21` [Example 24, N-(2-Hydroxy-2-methylpropyl)-4-[4-(thiazol-4-yl)benzyl]-1-methyl-1H-pyrrol[2,3-b]pyridine-6-carboxamide], the EC50 came to 834 nM.
As for `Cn1ccc2c(Cc3ccnc(F)c3)cc(C(=O)NC3CCOCC3O)nc21` (single isomer, unassigned) [Example 45, Racemic cis-N-(3-Hydroxytetrahydropyran-4-yl)-4-(2-fluoropyridin-4-ylmethyl)-1-methyl-1H-pyrrolo[2,3-b]pyridine-6-carboxamide], the figure is 3150 nM; as for `Cn1cc(-c2ccc(Cc3cc(C(=O)NC4CCOCC4O)nc4c3ccn4C)cc2)cn1` (racemic) [Example 56, Racemic trans-N-(3-Hydroxytetrahydropyran-4-yl)-4-[4-(1-methyl-1H-pyrazol-4-yl)benzyl]-1-methyl-1H-pyrrolo[2,3-b]pyridine-6-carboxamide], 38 nM.
For the compound `Cn1cc(-c2ccc(Cc3cc(C(=O)N[C@H]4CCCC[C@@H]4O)nc4c3CCNC4)cc2)cn1` [Example 90, N-[(1S,2S)-2-Hydroxycyclohexyl]-4-[4-(1-methyl-1H-pyrazol-4-yl)-benzyl-5,6,7,8-tetrahydro[1,7]naphthyridine-2-carboxamide Hydrochloride], the EC50 stood at 18 nM.
Then `O=C(N[C@@H]1CCOC[C@H]1O)c1cc(Cc2ccc(F)cc2)c2c(n1)OCCO2` (single isomer, unassigned) [Example 113, trans-N-(3-Hydroxytetrahydropyran-4-yl)-8-(4-fluorobenzyl)-2,3-dihydro-[1,4]dioxino[2,3-b]pyridine-6-carboxamide (Isomer-IT)], with 136 nM; and `Cn1ccc2c(Cc3ccc(Cl)nc3)cc(C(=O)N[C@H]3CCOC[C@H]3O)nc21` (single isomer, unassigned; isomer-ii) [Example 50, cis-N-(3-Hydroxytetrahydropyran-4-yl)-4-(2-chloropyridin-5-ylmethyl)-1-methyl-1H-pyrrolo[2,3-b]pyridine-6-carboxamide (Isomer-II)], with 2920 nM.
